Laboratory results as given in patent publication US6670347B2, “19-nor-17α-pregna-1,3,5(10)-trien-17β-ols with a 21,16α-lactone ring” (Schering AG, priority 2000, dated 2003).

Columns and labels:
ovariectomized rats = experiment: Uterus growth test on ovariectomized rats (3-day treatment); format: in vivo, rat; set-up: unit not given beside the values; conditions: subcutaneously daily over 3 days
Procedure: An in-depth description of the experiment was published (K. H., Fritzemeir, Ch. Hegele-Hartung (1999), Handbook of Pharmacol., Oettel, Schillinger eds., 135/II, 21:1-94). Ovariectomized rats were treated 10 days after ovariectomy with various dosages of the test substance or reference substance. The treatment was carried out subcutaneously daily over 3 days. On day 4, the animals were sacrificed, and the uterus moist and dry weights were determined.

[1] = target: T1, estrogen receptor preparations of rat uteri (rat uterus cytosol; ERα predominates) (Rattus norvegicus, UniProt P06211); experiment: Estrogen receptor binding, rat uterus cytosol (competition with 3H-estradiol); conditions: relative binding affinity, RBA of reference substance estradiol = 100
T1 construct: The preparation of rat uterus cytosol, and the receptor test with the ER containing cytosol; from tissue; host or cells: rat uterus cytosol
T1 sequence (P06211 1-600): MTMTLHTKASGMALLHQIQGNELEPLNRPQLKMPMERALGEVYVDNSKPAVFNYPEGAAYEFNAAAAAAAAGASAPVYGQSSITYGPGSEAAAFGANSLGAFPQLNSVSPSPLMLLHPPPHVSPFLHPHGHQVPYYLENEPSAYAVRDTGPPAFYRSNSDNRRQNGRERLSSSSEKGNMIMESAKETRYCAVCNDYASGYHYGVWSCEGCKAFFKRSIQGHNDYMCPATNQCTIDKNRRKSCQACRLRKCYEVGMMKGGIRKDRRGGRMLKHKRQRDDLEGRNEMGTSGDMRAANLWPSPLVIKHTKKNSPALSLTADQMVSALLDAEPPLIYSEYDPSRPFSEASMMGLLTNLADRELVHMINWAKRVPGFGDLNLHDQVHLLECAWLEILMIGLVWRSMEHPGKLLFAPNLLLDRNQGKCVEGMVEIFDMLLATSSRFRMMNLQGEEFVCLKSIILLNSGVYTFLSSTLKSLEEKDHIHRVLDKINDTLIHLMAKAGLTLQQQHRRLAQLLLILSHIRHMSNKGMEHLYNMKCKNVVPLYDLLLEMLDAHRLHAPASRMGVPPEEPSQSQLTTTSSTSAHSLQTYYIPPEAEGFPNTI
Procedure: (§1) This patent application describes novel structures for selective estrogens, which have in vitro dissociation with respect to binding to estrogen receptor preparations of the rat uterus and rat prostate. In this case, it is assumed that ERα predominates in the rat uteri over ERβ, while ERβ predominates in the rat prostates over ERα.
(§2) The binding affinity of the new selective estrogens was tested in competitive tests with use of 3H-estradiol as a ligand in estrogen receptor preparations of rat prostates and rat uteri. The preparation of the prostate cytosol and the estrogen receptor test was performed with the prostate cytosol, as described by Testas et al. (1981) (Testsas, J. et al., 1981, Endocrinology 109:1287-1289).
The preparation of rat uterus cytosol, and the receptor test with the ER containing cytosol were performed basically as by Stack and Gorski, 1985 (Stack, Gorski 1985, Endocrinology 117, 2024-2032) with some modifications as described in Fuhrmann et al. (1995) (Fuhrmann U. et al. 1995, Contraception 51:45-52).

[2] = tested on: estrogen receptor preparations of rat prostates (rat prostate cytosol; ERβ predominates); experiment: Estrogen receptor binding, rat prostate cytosol (competition with 3H-estradiol); conditions: relative binding affinity, RBA of reference substance estradiol = 100
Procedure: as §1, §2

Row | Structure (SMILES) | Uterus Moist Weight [Mw ± SD] (ovariectomized rats; dosage 0.1 μg/kg) | Uterus Moist Weight [Mw ± SD] (ovariectomized rats; dosage 1 μg/kg) | Uterus Moist Weight [Mw ± SD] (ovariectomized rats; dosage 10 μg/kg) | Rat Uterus Cytosol (RBA*) [1] | Rat Prostate Cytosol (RBA*) [2]
1 | C[C@]12CC[C@@H]3c4ccc(O)cc4CC[C@H]3[C@@H]1CC[C@@H]2O [17β-Estradiol, reference compound] | 28.0 ± 2.0 | 71.9 ± 9.6 | 82.3 ± 11.3 |  | 
2 | C[C@]12CC[C@@H]3c4ccc(O)cc4CC[C@H]3[C@@H]1C[C@H]1OC(=O)C[C@]12O [3,17β-Dihydroxy-19-nor-17α-pregna-1,3,5(10)-triene-21,16α-lactone] | 23.7 ± 2.2 | 60.1 ± 7.4 | 95.9 ± 12.4 | 12.5 | <0.1
